From patent US6685617B1, “Inhibitors of α4β1 mediated cell adhesion” (Pharmacia & Upjohn Company, priority 1998, dated 2004)

Key:
[1] = biological target: T1, α4β1 integrin (Jurkat T-cell adhesion to IL-1 stimulated endothelial cell monolayers) (Homo sapiens, UniProt P05556+P13612); experiment: Jurkat-endothelial cell adhesion assay (Jurkat EC); type: cell-based; conditions: Jurkat cells on IL-1 stimulated human umbilical vein endothelial cells; read-out: JK/EC (Jurkat EC Assay IC50 value range)
T1 construct: a T-cell line, Jurkat, known to express the α4β1 integrin; host or cells: Jurkat T-cell line
T1 sequence (P13612 34-1032): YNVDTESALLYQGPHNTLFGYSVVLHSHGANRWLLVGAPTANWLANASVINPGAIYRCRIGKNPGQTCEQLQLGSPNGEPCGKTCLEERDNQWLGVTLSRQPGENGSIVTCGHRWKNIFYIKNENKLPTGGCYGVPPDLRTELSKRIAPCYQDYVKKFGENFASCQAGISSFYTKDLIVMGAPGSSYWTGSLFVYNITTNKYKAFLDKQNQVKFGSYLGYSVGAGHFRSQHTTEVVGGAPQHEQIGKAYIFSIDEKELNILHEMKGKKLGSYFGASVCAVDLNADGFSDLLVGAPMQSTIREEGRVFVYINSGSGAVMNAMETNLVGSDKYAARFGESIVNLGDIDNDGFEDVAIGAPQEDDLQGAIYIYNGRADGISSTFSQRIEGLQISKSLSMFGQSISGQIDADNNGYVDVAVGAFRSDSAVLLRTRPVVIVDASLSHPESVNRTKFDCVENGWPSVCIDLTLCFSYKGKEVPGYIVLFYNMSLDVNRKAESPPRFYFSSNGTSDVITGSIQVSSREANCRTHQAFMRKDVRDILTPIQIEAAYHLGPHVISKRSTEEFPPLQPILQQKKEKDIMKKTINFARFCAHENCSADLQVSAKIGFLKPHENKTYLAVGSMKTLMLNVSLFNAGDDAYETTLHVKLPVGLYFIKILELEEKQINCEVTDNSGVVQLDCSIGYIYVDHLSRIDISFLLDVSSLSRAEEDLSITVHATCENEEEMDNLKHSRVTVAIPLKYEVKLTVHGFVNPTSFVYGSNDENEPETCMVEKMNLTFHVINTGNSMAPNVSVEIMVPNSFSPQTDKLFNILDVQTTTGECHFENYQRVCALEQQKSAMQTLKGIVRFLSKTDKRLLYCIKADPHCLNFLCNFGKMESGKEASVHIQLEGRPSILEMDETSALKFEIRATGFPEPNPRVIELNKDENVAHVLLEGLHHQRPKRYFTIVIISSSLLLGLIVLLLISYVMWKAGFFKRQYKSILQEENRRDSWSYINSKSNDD
T1 sequence (P05556 21-798): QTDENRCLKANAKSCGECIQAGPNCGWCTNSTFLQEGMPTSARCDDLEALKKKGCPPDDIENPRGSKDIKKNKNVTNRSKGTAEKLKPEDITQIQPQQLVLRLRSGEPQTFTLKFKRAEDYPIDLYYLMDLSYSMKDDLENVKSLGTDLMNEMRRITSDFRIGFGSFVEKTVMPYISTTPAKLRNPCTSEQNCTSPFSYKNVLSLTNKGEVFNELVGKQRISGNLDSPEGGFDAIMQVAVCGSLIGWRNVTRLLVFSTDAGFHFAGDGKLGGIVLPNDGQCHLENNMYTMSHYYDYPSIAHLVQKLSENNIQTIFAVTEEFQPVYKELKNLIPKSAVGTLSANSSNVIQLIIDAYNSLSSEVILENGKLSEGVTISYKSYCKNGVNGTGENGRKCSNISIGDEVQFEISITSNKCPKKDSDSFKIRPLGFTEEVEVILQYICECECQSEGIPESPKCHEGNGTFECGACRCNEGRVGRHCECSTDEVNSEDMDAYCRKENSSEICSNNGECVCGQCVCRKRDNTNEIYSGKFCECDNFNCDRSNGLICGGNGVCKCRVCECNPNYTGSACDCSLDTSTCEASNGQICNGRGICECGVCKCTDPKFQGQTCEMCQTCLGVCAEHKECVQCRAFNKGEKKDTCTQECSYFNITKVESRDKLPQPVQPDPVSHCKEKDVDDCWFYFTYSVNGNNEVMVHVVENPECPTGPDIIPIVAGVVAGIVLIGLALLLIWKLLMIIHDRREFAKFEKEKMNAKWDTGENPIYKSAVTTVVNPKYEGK
Outline: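 Adhesion was expressed as percent of compound-free fluorescence after 20 min at 37° C (following 5 min settling on ice) of BCECF-loaded Jurkat T cells on washed HUVEC monolayers. The endothelium, passage 6 or lower, had received 0.1 ng/ml recombinant IL-1 for 4 hr at 37° C; compound was premixed with the T cells, typically at 100, 20, 5 and 1.25 μM.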

[2] = biological target: T2, α4β1 integrin (Jurkat cell adhesion to immobilized CS-1 derived peptide CLHPGEILDVPST) (Homo sapiens, UniProt P05556+P13612); experiment: Jurkat-CS-1 assay; type: cell-based; conditions: Jurkat cells on CS-1 peptide coated plates; read-out: JK/CS-1 (Jurkat CS-1 Assay IC50 value range)
T2 construct: 100 μl of Jurkat cells (2.5×10^6 cells/ml) in DMEM plus BSA; host or cells: Jurkat T-cell line
T2 sequence (P13612 34-1032): as the sequence (P13612 34-1032) above
T2 sequence (P05556 21-798): as the sequence (P05556 21-798) above
Outline: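 CS-1 peptide was SPDP-crosslinked onto HSA-coated plates and blocked with BSA. Jurkat cells (2.5×10^6 cells/ml) in DMEM/BSA were mixed with compound, generally at 100, 20, 5 and 1.25 μM, and allowed to adhere for 1 hr at 37° C. Bound cells were fixed, stained with toluidine blue and quantified by OD590.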

Molecule	IC50 [1] [nM]	IC50 [2] [nM]
CC(c1ccccc1)N1C(C(=O)O)CC1C(=O)NC(Cc1ccc(NC(=O)c2c(Cl)cccc2Cl)cc1)C(=O)O (single isomer, unassigned) [Example 139]	≥ 1000	50 to 750
COC(=O)[C@@H](Cc1ccc(NC(=O)c2c(Cl)cccc2Cl)cc1)NC(=O)[C@H]1CSCN1C(=O)OC(C)(C)C (stereo in doubt) [Example 26, [S-(R*,S*)]-4-[[[1-[4-[(2,6-Dichlorobenzoyl)amino]phenyl]methyl]-2-methoxy-2-oxoethyl]amino]carbonyl]-3-thiazolidinecarboxylic Acid 3-1,1-Dimethylethyl)ester]	≥ 1000	≥ 750
O=C(O)c1cncc(C(=O)N2CCC[C@H]2C(=O)N[C@@H](Cc2ccc(NC(=O)c3c(Cl)cccc3Cl)cc2)C(=O)O)c1 [Example 237]	≥ 1000	50 to 750
CC(C)(C)OC(=O)N1CSC[C@H]1C(=O)N[C@@H](Cc1ccc(NC(=O)c2c(Cl)cccc2Cl)cc1)C(=O)O (stereo in doubt) [Example 14, [R-(R*,S*)]-4-[[[1-Carboxy-2-[4-[(2,6-dichlorobenzoyl)amino]phenyl]ethyl]amino]carbonyl]-3-thiazolidinecarboxylic Acid 3-(1,1-Dimethylethyl)ester]	250 to 1000	50 to 750
CC(C)(C)OC(=O)N1CSC[C@@H]1C(=O)N[C@@H](Cc1ccc(OCc2c(Cl)cccc2Cl)c(Cl)n1)C(=O)O [Example 119, [S-(R*,R*)]-4-[[1-Carboxy-2-[[2-Chloro-3-[(2,6-dichlorophenyl)methoxy]-6-pyridyl]ethyl]amino]carbonyl]-3-thiazolidinecarboxylic Acid (1,1-Dimethylethyl)ester]	≥ 1000	≥ 750
O=C(O)[C@H](Cc1ccc(OCc2c(Cl)cccc2Cl)cc1)NC(=O)[C@H]1CSCN1C(=O)OCCN1CCCCC1 (relative stereo) [Example 152, [S-(R*,R*)]-4-[[[1-Carboxy-2-[4-[(2,6-dichlorophenyl)methoxy]phenyl]ethyl]amino]carbonyl]-3-thiazolidinecarboxylic Acid 3-[2-(1-Piperidinyl)ethyl]ester]	≤ 250	≤ 50
O=C(O)/C=C\C(=O)N1CCCC(C(=O)N[C@@H](Cc2ccc(NC(=O)c3c(Cl)cccc3Cl)cc2)C(=O)O)C1 (stereo partly drawn) [Example 197]	≥ 1000	≥ 750
COCCC(=O)N1CCC[C@@H]1C(=O)N[C@@H](Cc1ccc(NC(=O)c2c(Cl)cccc2Cl)cc1)C(=O)O [Example 256]	≤ 250	≤ 50
O=C(O)CCCC(=O)N1CSC[C@@H]1C(=O)N[C@@H](Cc1ccc(NC(=O)c2c(Cl)cccc2Cl)cc1)C(=O)O (relative stereo) [Example 60, [S-(R*,R*)]-4-[[[1-Carboxy-2-[4-[(2,6-dichlorobenzoyl)amino]phenyl]ethyl]amino]carbonyl]-δ-oxo-3-thiazolidinepentanoic Acid]	≤ 250	≤ 50
COCCC(=O)N1CCC[C@H]1C(=O)N[C@@H](Cc1ccc(NC(=O)c2c(Cl)cccc2Cl)cc1)C(=O)O [Example 229]	≥ 1000	50 to 750
O=C(Nc1ccc(C[C@H](NC(=O)[C@@H]2CCCCN2C(=O)C2NC(C(=O)O)CS2)C(=O)O)cc1)c1c(Cl)cccc1Cl (stereo partly drawn) [Example 190]	250 to 1000	50 to 750
COC(=O)[C@H](Cc1ccc(NC(=O)c2c(Cl)cccc2Cl)cc1)NC(=O)[C@H]1CSCN1C(=O)OCC1c2ccccc2-c2ccccc21 (relative stereo) [Example 18]	≥ 1000	≥ 750
CC(C)(C)OC(=O)N1CSC(C)(C)[C@@H]1C(=O)N[C@@H](Cc1ccc(NC(=O)c2c(Cl)cccc2Cl)cc1)C(=O)O (relative stereo) [Example 29, [S-(R*,R*)]-4-[[[1-Carboxy-2-[4-[(2,6-dichlorobenzoyl)amino]phenyl]ethyl]amino]carbonyl]-5,5-dimethyl-3-thiazolidinecarboxylic Acid 3-(1,1-Dimethylethyl)ester]	250 to 1000	50 to 750
O=C(Nc1ccc(C[C@H](NC(=O)[C@@H]2CCCCN2C(=O)C2CCCO2)C(=O)O)cc1)c1c(Cl)cccc1Cl (stereo partly drawn) [Example 192]	≤ 250	≤ 50
COC(=O)[C@H](Cc1ccc(NC(=O)c2c(Cl)cccc2Cl)cc1)NC(=O)[C@@H]1CSCCN1 [Example 97]	≥ 1000	≥ 750
CC(C)(C)NC(=O)N1CSC[C@@H]1C(=O)N[C@@H](Cc1ccc(NC(=O)c2c(Cl)cccc2Cl)cc1)C(=O)O [Example 52, 4-[(2,6-Dichlorobenzoyl)amino]-N-[[(4S)-3-[[(1,1-dimethylethyl)amino]carbonyl]-4-thiazolidinyl]carbonyl]-L-phenylalanine]	≤ 250	50 to 750
O=C(Nc1ccc(C[C@H](NC(=O)[C@H]2CSCN2C(=O)OCc2ccccc2)C(=O)O)cc1)c1c(Cl)cccc1Cl (relative stereo) [Example 21, [S-(R*,R*)]-4-[[[1-Carboxy-2-[4-[(2,6-dichlorobenzoyl)amino]phenyl]ethyl]amino]carbonyl]-3-thiazolidinecarboxylic Acid 3-Phenylmethyl Ester]	≤ 250	50 to 750
CC1(C)SCN(C(=O)CCC(=O)O)[C@H]1C(=O)N[C@@H](Cc1ccc(NC(=O)c2c(Cl)cccc2Cl)cc1)C(=O)O (relative stereo) [Example 63, [S-(R*,R*)]-4-[[[1-Carboxy-2-[4-[(2,6-dichlorobenzoyl)amino]phenyl]ethyl]amino]carbonyl]-5,5-dimethyl-δ-oxo-3-thiazolidinebutanoic Acid]	≤ 250	≤ 50
O=C(O)c1cc(C(=O)N2CSC[C@H]2C(=O)N[C@@H](Cc2ccc(NC(=O)c3c(Cl)cccc3Cl)cc2)C(=O)O)n[nH]1 [Example 243]	250 to 1000	50 to 750
O=C(Nc1ccc(C[C@H](NC(=O)[C@H]2CCCN2C(=O)C2CCCO2)C(=O)O)cc1)c1c(Cl)cccc1Cl (stereo partly drawn) [Example 260]	250 to 1000	50 to 750
CCOC(=O)N1CSC[C@@H]1C(=O)N[C@@H](Cc1ccc(OCc2c(Cl)cccc2Cl)cc1)C(=O)NO [Example 92]	≥ 1000	≥ 750
O=C(O)/C=C/C(=O)N1CCC[C@@H]1C(=O)N[C@@H](Cc1ccc(NC(=O)c2c(Cl)cccc2Cl)cc1)C(=O)O [Example 255]	≥ 1000	50 to 750
COC(=O)[C@H](Cc1ccc(NC(=O)c2c(Cl)cccc2Cl)cc1)NC(=O)[C@@H]1CSC(C)(C)N1C(=O)OC(C)(C)C (relative stereo) [Example 72, [R-(R*,S*)]-4-[[[1-[[4-[(2,6-Dichlorobenzoyl)amino]phenyl]methyl]-2-methoxy-2-oxo-ethyl]amino]carbonyl]-2,2-dimethyl-3-thiazolidinecarboxylic Acid 3-(1,1-Dimethylethyl)ester]	≥ 1000	≥ 750
O=C(Nc1ccc(C[C@H](NC(=O)[C@@H]2CCCCN2C(=O)c2cccnc2)C(=O)O)cc1)c1c(Cl)cccc1Cl [Example 185]	≤ 250	≤ 50
O=C(Nc1ccc(C[C@H](NC(=O)[C@H]2CCCN2C(=O)c2cccnc2)C(=O)O)cc1)c1c(Cl)cccc1Cl [Example 259]	≤ 250	50 to 750
CC(C)(C)OC(=O)N1CSC[C@@H]1C(=O)N[C@@H](Cc1ccc(N(C(=O)c2c(Cl)cccc2Cl)C(=O)c2c(Cl)cccc2Cl)nc1)C(=O)O [Example 123, [S-(R*,R*)]-4-[[[[1-Carboxy-2-[2-[[bis-(2,6-dichlorobenzoyl)]amino]-5-pyridyl]]ethyl]amino]carbonyl]-3-thiazolidinecarboxylic Acid (1,1-Dimethylethyl)ester]	≥ 1000	≥ 750
O=C(O)c1cccc(C(=O)N2CSC[C@H]2C(=O)N[C@@H](Cc2ccc(NC(=O)c3c(Cl)cccc3Cl)cc2)C(=O)O)n1 [Example 240]	≥ 1000	50 to 750
CCOC(=O)N1CSC[C@@H]1C(=O)N[C@@H](Cc1ccc(OCc2c(Cl)cccc2Cl)cc1)C(=O)OC (relative stereo) [Example 34, [S-(R*,R*)]-4-[[[1-[4-[(2,6-Dichlorophenyl)methoxy]phenylmethyl]-2-methoxy-2-oxoethyl]amino]carbonyl]-3-thiazolidinecarboxylic Acid 3-Ethyl Ester]	≥ 1000	50 to 750
CC(C)(C)OC(=O)N1CSC[C@@H]1C(=O)N[C@@H](Cc1ccc(NC(=O)c2c(Cl)cccc2Cl)cc1)C(=O)O (relative stereo) [Example 10, [S-(R*,R*)]-4-[[[1-Carboxy-2-[4-[(2,6-dichlorobenzoyl)amino]phenyl]ethyl]amino]carbonyl]-3-thiazolidinecarboxylic Acid 3-(1,1-Dimethylethyl)ester]	≤ 250	≤ 50
[2R-[1(R*),2α,4β(S*)]]-4-[[[1-Carboxy-2-[4-[(2,6-dichlorobenzoyl)amino]phenyl]-ethyl]-amino]carbonyl]-1-(1-phenylethyl)-2-azetidinecarboxylic Acid Dilithium Salt [Example 135]	250 to 1000	50 to 750
